Source: US20200222474A1, “COMPOSITIONS AND METHODS FOR INCREASING PHYTOCHEMICAL BIOAVAILABLITY AND BIOACTIVITY” (North Carolina State University, priority 2017, published 2020)

What was measured:
[1] = system: L. acidophilus NCFM; assay: Growth of L. acidophilus NCFM on plant glycosides as single carbon source (OD600); assay type: cell-based, Lactobacillus acidophilus; details: for Growth (OD600 max class) of L. acidophilus NCFM: SDM + 1% (w/v) carbohydrate (0.5% esculin), 37° C., 30 hours, corrected to medium without carbohydrate; for OD600 max: single carbon source, 200 μl cultures, 96 microtitre plates, corrected for medium without carbon source
Experimental: (§1) For initial growth and gene expression studies, L. acidophilus NCFM was propagated three times in semi-defined medium (SDM) supplemented with either 1% or 0,5% (w/v) of the plant glycoside or carbohydrate (Table 1). For the RNA-seq analysis, cells were harvested by centrifugation (3,220×10 min, 25° C.) in the mid-exponential phase (OD600=0.6-0.8) and stored at −80° C. for subsequent RNA isolation. For the mass spectrometry metabolite analyses, 200 μt samples were taken at 0, 3, 6, 9, 12, and 24 hours of growth; cells were removed by centrifugation; and supernatants were stored at −80° C. for further analysis.
(§2) Phenotypic growth assays were performed using 1% (v/v) overnight cultures of L. acidophilus strains (Table 2) and other Lactobacillus species (Table 3) grown on SDM supplemented with 1% (w/v) glucose to inoculate 200 μL of SDM supplemented with 1% (w/v) of the examined carbohydrate (0.5% in the case of esculin) in 96-well microplate wells (Corning Costar, Corning, N.Y., USA) in duplicate or triplicate wells, respectively. The microplates were sealed with clear adhesive film, incubated at 37° C. in a Fluostar Optima microplate reader (BMG Labtech, Cary, N.C., USA), and the cell optical density (OD600) was monitored for 30 hours.
The growth of L. acidophilus NCFM was evaluated on twelve chemically diverse, nutritionally relevant and/or therapeutically active PGs 1; Table 1). FIG. 1A provides the structures and common sources of plant glycoside substrates described herein. The compounds that support growth of Lactobacillus acidophilus are in green. RI: β-D-Glcp; R2: Gentiobioside (β-D-Glcp-(1,6)-D-Glcp); R3: Rutinoside (α-L-Rhaf-(1,6)-D-Glcp). The graph in FIG. 1B depicts plant glycoside utilization analyzed by mass spectrometry and the growth as the maximum OD600. Due to the low solubility of polydatin, OD600 cannot be used as a growth metric and utilization of this compound is confirmed by the production of lactate as well as a high utilization level based on the metabolite analysis.

[2] = system: L. animalis DSM 20602; assay: Phenotypic growth assay (OD600); assay type: cell-based; details: SDM + 1% (w/v) carbohydrate (0.5% esculin), 37° C., 30 hours; corrected to medium without carbohydrate
Experimental: as §2

[3] = system: L. johnsonii ATCC 33200; assay: Phenotypic growth assay (OD600); assay type: cell-based; details: SDM + 1% (w/v) carbohydrate (0.5% esculin), 37° C., 30 hours; corrected to medium without carbohydrate
Experimental: as §2

[4] = system: L. amyloverus ATCC 33620, DSM 20531; assay: Phenotypic growth assay (OD600); assay type: cell-based; details: SDM + 1% (w/v) carbohydrate (0.5% esculin), 37° C., 30 hours; corrected to medium without carbohydrate
Experimental: as §2

[5] = system: L. gasseri ATCC 33323; assay: Phenotypic growth assay (OD600); assay type: cell-based; details: SDM + 1% (w/v) carbohydrate (0.5% esculin), 37° C., 30 hours; corrected to medium without carbohydrate
Experimental: as §2

[6] = system: L. reuteri (ATCC 23272, DSM 20016); assay: Phenotypic growth assay (OD600); assay type: cell-based; details: SDM + 1% (w/v) carbohydrate (0.5% esculin), 37° C., 30 hours; corrected to medium without carbohydrate
Experimental: as §2

[7] = system: L. crispatus ATCC 33820, DSM 20584; assay: Phenotypic growth assay (OD600); assay type: cell-based; details: SDM + 1% (w/v) carbohydrate (0.5% esculin), 37° C., 30 hours; corrected to medium without carbohydrate
Experimental: as §2

[8] = system: L. helveticus CNRZ32; assay: Phenotypic growth assay (OD600); assay type: cell-based; details: SDM + 1% (w/v) carbohydrate (0.5% esculin), 37° C., 30 hours; corrected to medium without carbohydrate
Experimental: as §2

[9] = system: L. plantarum sp. plantarum ATCC 14917, LA70; assay: Phenotypic growth assay (OD600); assay type: cell-based; details: SDM + 1% (w/v) carbohydrate (0.5% esculin), 37° C., 30 hours; corrected to medium without carbohydrate
Experimental: as §2

[10] = system: L. intestinalis Th4, ATCC 49335, DSM 6629; assay: Phenotypic growth assay (OD600); assay type: cell-based; details: SDM + 1% (w/v) carbohydrate (0.5% esculin), 37° C., 30 hours; corrected to medium without carbohydrate
Experimental: as §2

[11] = system: L. jensenii ATCC 25258, 62G, DSM 20557; assay: Phenotypic growth assay (OD600); assay type: cell-based; details: SDM + 1% (w/v) carbohydrate (0.5% esculin), 37° C., 30 hours; corrected to medium without carbohydrate
Experimental: as §2

[12] = system: L. rhanmosus GG (ATCC 53103); assay: Phenotypic growth assay (OD600); assay type: cell-based; details: SDM + 1% (w/v) carbohydrate (0.5% esculin), 37° C., 30 hours; corrected to medium without carbohydrate
Experimental: as §2

[13] = system: L. acidophilus LA-1; assay: Phenotypic growth assay (OD600); assay type: cell-based; details: SDM + 1% (w/v) carbohydrate (0.5% esculin), 37° C., 30 hours; corrected to medium without carbohydrate
Experimental: as §2

[14] = system: L. fermentum ATCC 14931; assay: Phenotypic growth assay (OD600); assay type: cell-based; details: SDM + 1% (w/v) carbohydrate (0.5% esculin), 37° C., 30 hours; corrected to medium without carbohydrate
Experimental: as §2

[15] = system: L. acidophilus NCFM; assay: Plant glycoside uptake and metabolite analysis of L. acidophilus NCFM culture supernatants by UHPLC-DAD-Q-TOF-MS; assay type: cell-based, Lactobacillus acidophilus; details: for aglycone / main metabolite identified in culture supernatant: L. acidophilus NCFM growing on the glycoside, up to 24 h; for Catabolism based on MS: qualitative: depletion of the plant glycoside and/or appearance of its metabolites; for order of depletion from equimolar mixture of salicin, esculin and amygdalin: culture supernatants, 24 hours growth
Experimental: as §1
Analysis of plant glycoside uptake from L. acidophilus NCFM culture supernatants using mass spectrometry. The supernatants of L. acidophilus NCFM cultures grown on amygdalin, arbutin, esculin or salicin as carbon sources were analyzed during 24 hours by ultra-high performance liquid chromatography-diode array detection-quadruple time of flight mass spectrometry (UHPLC-DAD-Q-TOF-MS). Samples were diluted 1:20 (v/v) with methanol and an injection volume of […] was used. Separation was carried out on an Agilent Poroshell 120 phenyl-hexyl column (2.1×150 mm, 2.7 μm) using the Agilent Infinity 1290 UHPLC system (Agilent Technologies, Santa Clara, Calif., USA) equipped with a UV/vis spectrum diode array detector. Separation was performed at 0.35 mL min-1., 60° C. with a linear gradient consisting of water (A) and acetonitrile (B) both buffered with 20 mM formic acid, starting at 10% B and increased to 100% in 15 min where it was held for 2 min, returned to 10% in 0.1 min and kept for 3 min. MS detection was performed on an Agilent 6550 iFunnel QTOF MS equipped with Agilent Dual Jet Stream electrospray ion source with the drying gas temperature of 160° C. and gas flow of 13 L min^−1, whereas the sheath gas temperature was 300° C. and flow was 16 L min-1. Ionization was conducted in ESI-mode with capillary voltage set to 4000 V and nozzle voltage to 500 V. Mass spectra were recorded as centroid data for m/z 85-1700 in MS mode with an acquisition rate of 10 spectra s^−1. To avoid carry-over, the needle seat was back-flushed for 15 s at 4 mL min-1 with each of: i) isopropanol: 0.2% ammonium hydroxide (w/v) in water (1:1 v/v); ii) acetonitrile with 2% formic acid (w/v); iii) water with 2% formic acid. Data was processed with the Agilent Mass Hunter Qualitative Analysis B.07.00 software package (Agilent Technologies) and molar concentrations were obtained from standard curves of the plant glycosides and their main metabolites. Targeted compound searches were performed using lists of previously identified compounds plus standard chemical modifications.

[16] = growth concentration 0.5% (w/v)

SMILES	Growth (OD600 max class) of L. acidophilus NCFM [1]	Growth (OD600 max class) of L. animalis DSM 20602 [2]	Growth (OD600 max class) of L. johnsonii ATCC 33200 [3]	Growth (OD600 max class) of L. amyloverus ATCC 33620, DSM 20531 [4]	Growth (OD600 max class) of L. gasseri ATCC 33323 [5]	Growth (OD600 max class) of L. reuteri (ATCC 23272, DSM 20016) [6]	Growth (OD600 max class) of L. crispatus ATCC 33820, DSM 20584 [7]	Growth (OD600 max class) of L. helveticus CNRZ32 [8]	Growth (OD600 max class) of L. plantarum sp. plantarum ATCC 14917, LA70 [9]	Growth (OD600 max class) of L. intestinalis Th4, ATCC 49335, DSM 6629 [10]	Growth (OD600 max class) of L. jensenii ATCC 25258, 62G, DSM 20557 [11]	Growth (OD600 max class) of L. rhanmosus GG (ATCC 53103) [12]	Growth (OD600 max class) of L. acidophilus LA-1 [13]	Growth (OD600 max class) of L. fermentum ATCC 14931 [14]	aglycone / main metabolite identified in culture supernatant [15]	OD600 max ([1]; growth concentration 1% (w/v))	order of depletion from equimolar mixture of salicin, esculin and amygdalin [15]	Catabolism based on MS ([15]; growth concentration 1% (w/v))	further results
O=c1ccc2cc(O[C@@H]3O[C@H](CO)[C@@H](O)[C@H](O)[C@H]3O)c(O)cc2o1 [Esculin]	++ (“++” signifies 0.6 > OD600 max > 0.3.)	+ (“+” signifies 0.3 > OD600 max > 0.1.)	− (“−” signifies OD600 max < 0.1.)	− (“−” signifies OD600 max < 0.1.)	++ (“++” signifies 0.6 > OD600 max > 0.3.)	− (“−” signifies OD600 max < 0.1.)	++ (“++” signifies 0.6 > OD600 max > 0.3.)	− (“−” signifies OD600 max < 0.1.)	++ (“++” signifies 0.6 > OD600 max > 0.3.)	− (“−” signifies OD600 max < 0.1.)	++ (“++” signifies 0.6 > OD600 max > 0.3.)	++ (“++” signifies 0.6 > OD600 max > 0.3.)	+++ (“+++” signifies OD600 max > 0.6.)	− (“−” signifies OD600 max < 0.1.)	esculetin	–	–	–	OD600 max [1, 16]: 0.4; Catabolism based on MS [15, 16]: Yes
OCc1ccccc1O[C@@H]1O[C@H](CO)[C@@H](O)[C@H](O)[C@H]1O [Salicin]	+++ (“+++” signifies OD600 max > 0.6.)	+ (“+” signifies 0.3 > OD600 max > 0.1.)	+ (“+” signifies 0.3 > OD600 max > 0.1.)	− (“−” signifies OD600 max < 0.1.)	++ (“++” signifies 0.6 > OD600 max > 0.3.)	− (“−” signifies OD600 max < 0.1.)	+++ (“+++” signifies OD600 max > 0.6.)	− (“−” signifies OD600 max < 0.1.)	+++ (“+++” signifies OD600 max > 0.6.)	− (“−” signifies OD600 max < 0.1.)	++ (“++” signifies 0.6 > OD600 max > 0.3.)	+++ (“+++” signifies OD600 max > 0.6.)	+++ (“+++” signifies OD600 max > 0.6.)	− (“−” signifies OD600 max < 0.1.)	salicyl alcohol	0.8	first compound to be fully depleted	Yes	–
N#C[C@H](O[C@@H]1O[C@H](CO[C@@H]2O[C@H](CO)[C@@H](O)[C@H](O)[C@H]2O)[C@@H](O)[C@H](O)[C@H]1O)c1ccccc1 [Amygdalin]	+ (“+” signifies 0.3 > OD600 max > 0.1.)	− (“−” signifies OD600 max < 0.1.)	− (“−” signifies OD600 max < 0.1.)	− (“−” signifies OD600 max < 0.1.)	− (“−” signifies OD600 max < 0.1.)	− (“−” signifies OD600 max < 0.1.)	− (“−” signifies OD600 max < 0.1.)	+ (“+” signifies 0.3 > OD600 max > 0.1.)	+++ (“+++” signifies OD600 max > 0.6.)	− (“−” signifies OD600 max < 0.1.)	+ (“+” signifies 0.3 > OD600 max > 0.1.)	+++ (“+++” signifies OD600 max > 0.6.)	++ (“++” signifies 0.6 > OD600 max > 0.3.)	− (“−” signifies OD600 max < 0.1.)	benzaldehyde	0.3	significant amounts of amygdalin persisted after 24 hours	Yes	fraction of the initial glycoside utilized ([15]; during 24 hours growth, single carbon source): about a third
